What was measured:
[1] = test system: splenocytes; assay: Tetanus toxoid (TT)-induced ex vivo lymphocyte proliferation after administration to TT-immunized mice; settings: 10, 40 and 80 mg/kg i.p. in mouse serum, spleens removed 2 h later
Procedure: (§1) Mice were immunized with SRBC. After 5 days they were given β-thia-21:3n-3 at the indicated doses i.p. After 2 hours the spleens were removed and processed into single cell suppressions. These were then cultured in the presence (□), or absence of (▪) of SRBC to assess the proliferation. The results are expressed as mean±SEM of 3 experiments. (B) Effect of β-oxa-21:3n-3 on tetanus toxoid (TT)-induced ex vivo lymphocyte responses. Mice were immunized with TT subcutaneously and after 7 days were given β-oxa-21:3n-3 in mouse serum, intraperitoneally. Two hours later the spleen removed, single cell suspension prepared and examined for lymphoproliferation responses to TT in 5 day cultures. The results are expressed as mean±SEM of 3 experiments.
6-7 weeks old Balb/c mice were injected subcutaneously with 100 μl of 10% sheep red blood cells (IMVS, Inc., Adelaide, Australia) After 5 days 100 ul of β-oxa-21:3n-3 at indicated amounts were injected intraperitoneally, intravenously or gavaged orally. […] Cells were washed with RPMI-1640 containing 10% fetal bovine serum, 10 mM Hepes, antibiotics and glutamine (RPMI-10) and counted using an automated Cell-Dyne 3500R (Abbott, Inc. MA) instrument. […] Cells were harvested and thymidine incorporation was determined using a beta scintillation counter. […]

[2] = test system: human lymphocytes; assay: Human lymphocyte proliferation assay, mitogen (PHA)-induced; type: cell-based; settings: PHA-stimulated human lymphocytes, in vitro; read-out: IC50 for the PHA-stimulated response
[3] = test system: splenocytes; assay: Ex-vivo antigen (SRBC)-dependent splenocyte proliferation after administration to SRBC-immunized mice (thymidine incorporation); type: in vivo, Balb/c mice
Procedure: Mice were immunized with SRBC for 5 days. β-oxa-21:3n-3 was delivered in DMSO and injected intraperitoneally at the indicated doses. After 2 h spleens were removed and single cell suspensions were prepared. The splenocytes were cultured for 3 days in the presence (□), or absence (▪) of SRBC. Thymidine incorporation for final 16 hours of culture was determined. The data is expressed as mean±SEM of 3 separate experiments each in triplicate.
Mice were immunized with SRBC for 5 days. Then β-oxa-21:3n-3 dissolved in syngeneic mouse serum and injected intraperitoneally (A), intravenously (B) or gavaged/orally (C) at the indicated concentrations. After 2 h spleens were removed, single cell suspensions prepared and the splenocytes cultured for 3 days in the presence (▪), or absence (□) of SRBC. Thymidine incorporation for final 16 hours of culture was determined. The data is presented as the mean±SEM of 3 separate experiments separate experiments, each in quintuplets.
as §1
6-7 weeks old Balb/c mice were injected subcutaneously with 100 μl of 10% sheep red blood cells (IMVS, Inc., Adelaide, Australia) After 5 days 100 ul of β-oxa-21:3n-3 at indicated amounts were injected intraperitoneally, intravenously or gavaged orally. In another experimental set up mice were given β-tha-21:3n-3 i.p. In a third approach mice were infected subcutaneously with 100 μl of Tetanus Toxoid (2,500 Lf/ml). Then 7 days later were given β-oxa-21:3n-3. At indicated time points mice were sacrificed and spleens were removed. Single cell suspensions were prepared and white blood cells (WBC) were enriched by passing through Ficoll-Paque Plus (GE Healthcare). Cells were washed with RPMI-1640 containing 10% fetal bovine serum, 10 mM Hepes, antibiotics and glutamine (RPMI-10) and counted using an automated Cell-Dyne 3500R (Abbott, Inc. MA) instrument. Cells were viable (>98%) as judged by trypan blue exclusion. (β-oxa-21:3n-3)- or vehicle-treated mouse samples (200,000/well) were mixed either with SRBC (600,000/well) with 100 μl of Tetanus toxoid (50 Lf/ml) or phytohaemaglutinin (PHA) (2 μg/ml) or with PHA plus phorbol myristate acetate (PMA) (10 ng/ml) or with PMA plus calcium ionophore A23187 ([…]). Cells were cultured in 96 well U bottom plates (Nunc, Inc. Denmark) for 3 days (except for TT −5 days) at 37° C. under humidified air containing 5% CO2. At some instances 50 μl of supernatants were transferred to a new plate and frozen immediately at −70° C. to be used for cytokine measurements. Thymidine (50 μl, 1 μCi/well) was added at final 16 hours of culture. Cells were harvested and thymidine incorporation was determined using a beta scintillation counter.

[4] = test system: Th1, Th2 and macrophage-related cytokines; assay: Ex vivo cytokine production by antigen (SRBC)-stimulated splenocytes; type: in vivo, mice; settings: splenocytes cultured 3 days with SRBC, IP dosing
[5] = test system: Human PBMC; assay: Human lymphocyte proliferation assay, antigen (tetanus toxoid)-induced; type: cell-based
Procedure: Peripheral blood mononuclear cells were purified from the blood of normal volunteers using hypagn-ficoll density gradient separation. In the assay 100 μl of PBM (treated or untreated) at a concentration of 2×10^6/ml were stimulated by the addition of 100 μl of PHA (μg/ml) or […] 2 μg/ml TT in microtitre plates. The cultures contained 5% human blood group AB serum. The cells were incubated at 37° C. in 5% CO2-air and high humidity for 72 h or 5 days (for TT). The cultures were pulsed with 1 μl of 3H-TdR 6 h prior to harvest. The amount of radioactivity incorporated was determined to assess the degree of lymphoproliferation.
To attempt to resolve this discrepancy, we examined the sensitivity of the antigen-induced (tetanus toxoid) human lymphocyte response in vitro, under the same conditions as those in which the PHA-induced response were inhibited by β-oxa21:3n-3. Human PBMC which were known to show lymphoproliferation in response to TT were pretreated with a range of concentrations of β-oxa21:3n-3 and then stimulated with TT. Proliferation was quantitated after […] of incubation of cultures. […] Using purified human T cells which were stimulated with PHA-PMA we were able to ascertain that when β-oxa21:3n-3 was added to cells the stimulated cells contained 30 fold more β-oxa-21:3n-3 than resting T cells (FIG. 5B).

CC/C=C\C/C=C\C/C=C\CCCCCCCCOCC(=O)O [β-oxa-21:3n-3]
lymphoproliferation in response to TT [1]: capable of inhibiting the response
IC50 [2]: 30 µM
inhibition of splenocyte proliferation, duration of effect ([3]; ex-vivo SRBC challenge 1, 2 and 6 days after single administration (80 mg/kg IP)): significant inhibition
antigen-dependent splenocyte proliferation ([3]; intravenous, in syngeneic mouse serum, compared with IP): even more pronounced
antigen-dependent proliferation of splenocytes ([3]; orally administered (gavage), in mouse serum): significantly depressed
antigen-dependent proliferation of splenic lymphocytes, ex-vivo ([3]; single IP injection in 7% DMSO, 2 h, SRBC pre-sensitized mice): dose-dependent inhibition
antigen-induced macrophage cytokine levels (MCP-1, KC, IL-12) [4]: no significant effects
antigen-stimulated Th1 cytokines (IL-2, IL-6, IFNγ and TNFα) [4]: concentration-dependent reduction
antigen-stimulated Th2 cytokines (IL-4, IL-5, IL-10 and IL-13) [4]: concentration-dependent reduction
sensitivity of antigen-induced response relative to mitogenic response ([5]; TT versus PHA IC50): 15 fold
IC50 ([5]; tetanus toxoid-stimulated human PBMC, in vitro, read-out: IC50 for the inhibition of the antigen-induced response): 2 µM
